Here are results for four molecules from ChEMBL document CHEMBL1146269, “Intermediate analogue inhibitors of mandelate racemase: N-Hydroxyformanilide and cupferron” (Bioorg Med Chem Lett, 2007).

The target in one series is T1, Mandelate racemase (Pseudomonas putida, UniProt P11444).
T1 sequence (P11444 whole entry): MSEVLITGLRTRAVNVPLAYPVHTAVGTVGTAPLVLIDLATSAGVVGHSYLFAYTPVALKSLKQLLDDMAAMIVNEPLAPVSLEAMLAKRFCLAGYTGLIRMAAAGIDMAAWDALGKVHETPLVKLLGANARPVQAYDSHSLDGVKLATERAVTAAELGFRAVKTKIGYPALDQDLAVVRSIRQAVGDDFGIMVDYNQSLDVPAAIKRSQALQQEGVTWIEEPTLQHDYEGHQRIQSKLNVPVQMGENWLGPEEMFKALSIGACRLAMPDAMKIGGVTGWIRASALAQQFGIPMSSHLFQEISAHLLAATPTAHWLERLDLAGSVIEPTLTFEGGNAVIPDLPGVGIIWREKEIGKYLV
The series is described as follows: Inhibition of mandelate racemase in Pseudomonas putida.

A short description of series [1]: Dissociation constant, pKa of the compound. Format: physicochemical.

The structures appear in SMILES notation.

By Ki is commonly meant a measure of affinity in units of concentration, obtained from inhibition or displacement. As for `O=C1Cc2ccccc2N1O`, on Mandelate racemase, the affinity, expressed as Ki, was 510 µM.
What is called pKa is the negative logarithm of the acid dissociation constant. Turning to `O=CN(O)c1ccccc1`, at Mandelate racemase, the affinity, expressed as Ki, was 2.79 µM. Also, in series [1], the pKa was 7.92.
Molecule `O=C(NO)c1ccccc1` [BENZOHYDROXAMATE] displayed a Ki at Mandelate racemase of 12 µM.
Molecule `O=NN(O)c1ccccc1` [CUPFERRON] came in with a Ki at Mandelate racemase of 2.67 µM.
